Test results published in ChEMBL document CHEMBL5653631, “A Potent and Selective ULK1 Inhibitor Suppresses Autophagy and Sensitizes Cancer Cells to Nutrient Stress” (iScience, 2018).
Each block holds one molecule with its values, some of them ahead of it.

Legend:
[1] = biological target: Serine/threonine-protein kinase PAK 6 (Homo sapiens) (UniProt Q9NQU5); experiment: Inhibition of human recombinant PAK6 at 500 nM in presence of ATP by radiometric assay relative to control
[2] = biological target: Protein-tyrosine kinase 6 (Homo sapiens) (UniProt Q13882); experiment: Inhibition of human recombinant BRK at 500 nM related to control ULK1
Chain of Protein-tyrosine kinase 6 (Homo sapiens) (Q13882 whole entry, looked up): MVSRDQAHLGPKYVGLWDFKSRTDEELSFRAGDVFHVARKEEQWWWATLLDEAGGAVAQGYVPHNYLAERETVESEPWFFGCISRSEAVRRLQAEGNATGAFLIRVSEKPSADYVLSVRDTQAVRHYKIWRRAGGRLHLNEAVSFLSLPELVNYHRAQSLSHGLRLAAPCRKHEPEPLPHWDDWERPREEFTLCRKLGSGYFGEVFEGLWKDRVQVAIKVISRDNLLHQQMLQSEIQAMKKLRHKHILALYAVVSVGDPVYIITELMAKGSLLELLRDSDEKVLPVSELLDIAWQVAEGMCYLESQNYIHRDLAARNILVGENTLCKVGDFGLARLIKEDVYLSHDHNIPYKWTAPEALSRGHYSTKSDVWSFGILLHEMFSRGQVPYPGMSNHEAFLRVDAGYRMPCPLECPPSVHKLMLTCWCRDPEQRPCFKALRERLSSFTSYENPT

[3] = biological target: T1, Myosin-IIIb (Homo sapiens) (UniProt Q8WXR4); experiment: Inhibition of human recombinant MYO3B at 500 nM related to control ULK1
T1 sequence (whole entry): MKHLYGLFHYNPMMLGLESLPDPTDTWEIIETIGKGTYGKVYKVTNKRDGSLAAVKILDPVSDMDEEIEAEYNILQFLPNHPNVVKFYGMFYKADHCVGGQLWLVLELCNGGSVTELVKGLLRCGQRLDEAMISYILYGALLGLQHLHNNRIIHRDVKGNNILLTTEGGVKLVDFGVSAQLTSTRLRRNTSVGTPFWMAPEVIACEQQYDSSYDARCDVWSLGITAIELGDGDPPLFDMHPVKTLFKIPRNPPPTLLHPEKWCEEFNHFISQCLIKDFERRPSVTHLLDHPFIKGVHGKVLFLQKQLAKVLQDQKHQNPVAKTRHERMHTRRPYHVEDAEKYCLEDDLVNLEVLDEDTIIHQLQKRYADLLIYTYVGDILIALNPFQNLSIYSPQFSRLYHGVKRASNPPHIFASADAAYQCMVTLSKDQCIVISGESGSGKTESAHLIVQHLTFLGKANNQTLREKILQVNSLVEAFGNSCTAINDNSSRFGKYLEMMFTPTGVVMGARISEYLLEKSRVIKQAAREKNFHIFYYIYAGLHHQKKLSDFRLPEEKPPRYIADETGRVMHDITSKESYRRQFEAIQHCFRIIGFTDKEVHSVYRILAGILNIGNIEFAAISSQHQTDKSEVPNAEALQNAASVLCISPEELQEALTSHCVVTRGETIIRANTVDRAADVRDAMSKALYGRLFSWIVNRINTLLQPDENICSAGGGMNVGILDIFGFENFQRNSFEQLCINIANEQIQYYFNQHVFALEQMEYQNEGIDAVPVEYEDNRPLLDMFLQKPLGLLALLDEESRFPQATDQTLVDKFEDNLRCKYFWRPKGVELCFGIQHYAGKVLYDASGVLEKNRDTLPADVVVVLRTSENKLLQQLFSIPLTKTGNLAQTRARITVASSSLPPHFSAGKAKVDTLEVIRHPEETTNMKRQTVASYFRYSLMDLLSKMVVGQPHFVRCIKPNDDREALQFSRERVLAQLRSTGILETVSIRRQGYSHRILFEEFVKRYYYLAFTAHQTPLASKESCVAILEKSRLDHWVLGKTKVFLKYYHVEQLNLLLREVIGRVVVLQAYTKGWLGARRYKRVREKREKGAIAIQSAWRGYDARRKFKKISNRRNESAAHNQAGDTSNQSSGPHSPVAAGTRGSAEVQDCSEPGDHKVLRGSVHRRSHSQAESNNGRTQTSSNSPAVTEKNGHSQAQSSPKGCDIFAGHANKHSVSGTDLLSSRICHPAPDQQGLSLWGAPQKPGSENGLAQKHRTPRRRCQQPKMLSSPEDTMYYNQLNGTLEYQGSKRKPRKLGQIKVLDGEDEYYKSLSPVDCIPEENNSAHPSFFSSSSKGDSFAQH

[4] = species: Homo sapiens; experiment: Inhibition of human recombinant CK1d at 15 nM in presence of ATP by radiometric assay relative to control
[5] = biological target: Death-associated protein kinase 3 (Homo sapiens) (UniProt O43293); experiment: Inhibition of human recombinant DAPK3 at 15 nM related to control ULK1
Chain of Death-associated protein kinase 3 (Homo sapiens) (O43293 whole entry, looked up): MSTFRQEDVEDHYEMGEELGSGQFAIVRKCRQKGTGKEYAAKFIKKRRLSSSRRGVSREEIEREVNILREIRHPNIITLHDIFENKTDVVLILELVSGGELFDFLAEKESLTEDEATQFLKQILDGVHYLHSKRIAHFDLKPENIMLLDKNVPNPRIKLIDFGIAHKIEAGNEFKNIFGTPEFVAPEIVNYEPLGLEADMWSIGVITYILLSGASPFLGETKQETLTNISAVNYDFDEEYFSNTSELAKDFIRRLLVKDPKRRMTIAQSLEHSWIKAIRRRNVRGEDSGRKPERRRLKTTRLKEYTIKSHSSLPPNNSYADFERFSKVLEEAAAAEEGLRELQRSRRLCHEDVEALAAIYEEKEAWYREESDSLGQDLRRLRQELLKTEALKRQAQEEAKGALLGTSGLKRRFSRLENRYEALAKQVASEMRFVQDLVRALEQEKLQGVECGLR

[6] = biological target: T2, Inhibitor of nuclear factor kappa-B kinase subunit epsilon (Homo sapiens) (UniProt Q14164); experiment: Inhibition of human recombinant IKKe at 15 nM related to control ULK1
T2 sequence (whole entry): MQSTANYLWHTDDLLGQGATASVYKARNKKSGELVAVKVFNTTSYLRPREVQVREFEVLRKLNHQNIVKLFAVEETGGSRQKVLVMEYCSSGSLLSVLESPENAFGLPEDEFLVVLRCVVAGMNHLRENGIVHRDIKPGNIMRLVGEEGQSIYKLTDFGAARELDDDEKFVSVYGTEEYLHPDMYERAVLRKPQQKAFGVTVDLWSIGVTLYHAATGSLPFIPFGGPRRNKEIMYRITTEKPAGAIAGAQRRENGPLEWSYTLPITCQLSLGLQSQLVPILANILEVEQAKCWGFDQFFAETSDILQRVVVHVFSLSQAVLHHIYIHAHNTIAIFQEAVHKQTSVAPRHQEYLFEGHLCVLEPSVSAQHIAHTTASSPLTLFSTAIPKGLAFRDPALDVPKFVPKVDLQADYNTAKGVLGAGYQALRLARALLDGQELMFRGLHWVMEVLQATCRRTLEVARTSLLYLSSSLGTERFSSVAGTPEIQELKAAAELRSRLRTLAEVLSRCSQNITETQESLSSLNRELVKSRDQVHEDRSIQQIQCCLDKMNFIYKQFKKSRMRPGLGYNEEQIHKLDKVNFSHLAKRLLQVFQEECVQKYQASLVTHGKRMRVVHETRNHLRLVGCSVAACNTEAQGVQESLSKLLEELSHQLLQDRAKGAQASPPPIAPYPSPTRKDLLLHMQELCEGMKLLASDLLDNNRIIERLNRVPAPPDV

[7] = biological target: Serine/threonine-protein kinase MAK (Homo sapiens) (UniProt P20794); experiment: Inhibition of human recombinant MAK at 15 nM related to control ULK1
Chain of Serine/threonine-protein kinase MAK (Homo sapiens) (P20794 whole entry, looked up): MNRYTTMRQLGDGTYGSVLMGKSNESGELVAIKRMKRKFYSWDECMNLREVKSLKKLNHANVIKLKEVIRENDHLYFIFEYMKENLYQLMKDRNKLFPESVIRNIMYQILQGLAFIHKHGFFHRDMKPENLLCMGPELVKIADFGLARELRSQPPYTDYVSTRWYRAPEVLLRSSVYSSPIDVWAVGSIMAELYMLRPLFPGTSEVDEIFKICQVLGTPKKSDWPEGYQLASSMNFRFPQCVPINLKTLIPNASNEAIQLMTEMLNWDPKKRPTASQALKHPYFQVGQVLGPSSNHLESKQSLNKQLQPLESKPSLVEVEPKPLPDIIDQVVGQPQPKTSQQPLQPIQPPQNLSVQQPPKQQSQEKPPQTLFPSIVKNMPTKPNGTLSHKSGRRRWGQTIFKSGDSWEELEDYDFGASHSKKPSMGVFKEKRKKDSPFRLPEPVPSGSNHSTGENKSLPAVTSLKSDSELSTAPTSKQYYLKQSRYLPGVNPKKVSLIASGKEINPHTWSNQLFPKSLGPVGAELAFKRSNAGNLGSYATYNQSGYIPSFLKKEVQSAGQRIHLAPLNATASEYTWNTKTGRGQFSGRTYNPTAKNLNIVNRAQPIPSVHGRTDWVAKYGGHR

[8] = biological target: Focal adhesion kinase 1 (Homo sapiens) (UniProt Q05397); experiment: Inhibition of human recombinant FAK at 40 nM related to control ULK1
Chain of Focal adhesion kinase 1 (Homo sapiens) (Q05397 2-1052 limits assumed): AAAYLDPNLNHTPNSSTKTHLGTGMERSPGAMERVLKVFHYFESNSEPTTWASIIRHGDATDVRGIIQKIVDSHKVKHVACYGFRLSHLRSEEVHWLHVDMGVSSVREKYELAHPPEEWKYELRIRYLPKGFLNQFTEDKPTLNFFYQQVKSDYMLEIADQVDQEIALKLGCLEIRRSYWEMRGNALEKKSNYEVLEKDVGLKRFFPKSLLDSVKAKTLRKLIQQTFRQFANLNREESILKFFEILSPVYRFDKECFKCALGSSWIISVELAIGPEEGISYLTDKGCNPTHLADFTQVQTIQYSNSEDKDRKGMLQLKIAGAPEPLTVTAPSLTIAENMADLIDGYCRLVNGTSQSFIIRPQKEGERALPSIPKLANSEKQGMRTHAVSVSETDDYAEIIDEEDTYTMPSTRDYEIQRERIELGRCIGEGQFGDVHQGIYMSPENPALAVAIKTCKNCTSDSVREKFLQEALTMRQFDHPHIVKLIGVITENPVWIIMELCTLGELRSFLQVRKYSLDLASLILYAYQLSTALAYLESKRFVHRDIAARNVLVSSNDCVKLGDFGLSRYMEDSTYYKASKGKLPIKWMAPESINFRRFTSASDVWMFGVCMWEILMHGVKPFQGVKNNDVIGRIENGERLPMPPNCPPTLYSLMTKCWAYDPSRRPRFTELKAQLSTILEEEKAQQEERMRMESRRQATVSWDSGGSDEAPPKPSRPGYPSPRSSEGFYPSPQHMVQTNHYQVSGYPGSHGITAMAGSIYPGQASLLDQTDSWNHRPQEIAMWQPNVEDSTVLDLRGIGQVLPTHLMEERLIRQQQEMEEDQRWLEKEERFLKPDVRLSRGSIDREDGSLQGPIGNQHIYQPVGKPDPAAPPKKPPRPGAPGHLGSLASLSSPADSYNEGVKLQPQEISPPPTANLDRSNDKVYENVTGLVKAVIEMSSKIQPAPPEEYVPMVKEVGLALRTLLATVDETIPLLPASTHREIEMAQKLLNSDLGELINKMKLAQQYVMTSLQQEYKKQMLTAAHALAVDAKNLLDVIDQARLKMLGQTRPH

[9] = biological target: T3, Serine/threonine-protein kinase ULK3 (Homo sapiens) (UniProt Q6PHR2); experiment: Inhibition of human recombinant ULK3 at 40 nM related to control ULK1
T3 sequence (whole entry): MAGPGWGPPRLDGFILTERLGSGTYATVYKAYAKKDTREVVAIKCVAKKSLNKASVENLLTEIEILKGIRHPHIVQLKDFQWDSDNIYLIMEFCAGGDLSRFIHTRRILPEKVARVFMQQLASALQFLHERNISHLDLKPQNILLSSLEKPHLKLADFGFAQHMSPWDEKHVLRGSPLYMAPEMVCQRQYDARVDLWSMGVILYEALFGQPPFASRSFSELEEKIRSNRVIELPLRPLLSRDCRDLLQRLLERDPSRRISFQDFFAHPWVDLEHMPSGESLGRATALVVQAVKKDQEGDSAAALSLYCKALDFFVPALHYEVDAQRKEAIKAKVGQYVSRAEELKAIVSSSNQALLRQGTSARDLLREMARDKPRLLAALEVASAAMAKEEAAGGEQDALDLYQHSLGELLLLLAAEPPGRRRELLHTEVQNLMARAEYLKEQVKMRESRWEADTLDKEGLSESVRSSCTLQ

Chain of Serine/threonine-protein kinase PAK 6 (Homo sapiens) (Q9NQU5 whole entry, looked up): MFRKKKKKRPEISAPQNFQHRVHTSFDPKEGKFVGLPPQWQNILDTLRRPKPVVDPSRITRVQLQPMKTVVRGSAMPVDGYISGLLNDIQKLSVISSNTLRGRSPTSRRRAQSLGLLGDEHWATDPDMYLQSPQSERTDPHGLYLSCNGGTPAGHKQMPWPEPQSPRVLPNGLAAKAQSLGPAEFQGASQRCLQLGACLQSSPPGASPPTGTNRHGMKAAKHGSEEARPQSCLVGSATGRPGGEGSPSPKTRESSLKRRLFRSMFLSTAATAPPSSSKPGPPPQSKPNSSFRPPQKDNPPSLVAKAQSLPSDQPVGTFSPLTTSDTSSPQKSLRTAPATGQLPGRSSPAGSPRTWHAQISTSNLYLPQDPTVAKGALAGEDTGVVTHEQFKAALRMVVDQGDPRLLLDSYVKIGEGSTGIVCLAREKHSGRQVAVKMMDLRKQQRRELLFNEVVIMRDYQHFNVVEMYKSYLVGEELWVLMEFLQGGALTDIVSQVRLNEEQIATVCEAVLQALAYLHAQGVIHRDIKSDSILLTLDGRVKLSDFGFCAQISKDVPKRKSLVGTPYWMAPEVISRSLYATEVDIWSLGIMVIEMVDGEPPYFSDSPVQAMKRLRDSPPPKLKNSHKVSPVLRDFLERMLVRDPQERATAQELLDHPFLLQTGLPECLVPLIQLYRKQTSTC

- inhibition [1]: 19%
- fold change (FC) [2]: 0.03
- fold change (FC) [3]: 0.15
Compound: CNC(=O)c1ccccc1Oc1nc(Nc2cc(OC)c(OC)c(OC)c2)ncc1Br

- inhibition [4]: 3%
- fold change (FC) [6]: 0.85
- fold change (FC) [7]: 0.06
Compound: CC(C)[C@H](NC(=O)c1cc(-c2cnn3cc(-c4ccc(OCCN5CCCCC5)cc4)cnc23)cs1)C(F)(F)F
- fold change (FC) [5]: 0

- fold change (FC) [8]: 0
- fold change (FC) [9]: 0.07
Compound: O=C(N[C@@H](C1CC1)C(F)(F)F)c1cc(-c2cnn3cc(-c4ccc(F)cc4)cnc23)cs1
